Laboratory results published in publication PMC10033419, “Blocking NS3–NS4B interaction inhibits dengue virus in non-human primates” (Nature, 2023).
“And” between values parts separate entries of the source, which are not always exact repeats. Identical values can stand only once.

Key:
[1] = tested on: ZIKV H/PF/2013; assay: microbe, parasite or virus in culture; format: cell-based; settings: Zika virus, Vero C1008
[2] = tested on: DENV-2 RL strain; assay: Delayed-treatment study (therapeutic setting); format: in vivo, AG129 mice; settings: for Viral Load Copies/ml / Viral Load Log10: 30 mg/kg/day, individual mice; for Viral (load), log10 of the column before (head empty) / Viral (load; head cut off): JNJ-1802 30 mg/kg
[3] = start treatment day 0 p.i., blood sampling day 3 p.i.
[4] = start treatment day 0 p.i., blood sampling day 4 p.i.
[5] = start treatment day 0 p.i., blood sampling day 5 p.i.
[6] = start treatment day 0 p.i., blood sampling day 6 p.i.
[7] = start treatment day 0 p.i., blood sampling day 7 p.i.
[8] = start treatment day 0 p.i., blood sampling day 8 p.i.
[9] = start treatment day 0 p.i., blood sampling day 9 p.i.
[10] = start treatment day 4 p.i., blood sampling day 3 p.i.
[11] = start treatment day 4 p.i., blood sampling day 4 p.i.
[12] = start treatment day 4 p.i., blood sampling day 5 p.i.
[13] = start treatment day 4 p.i., blood sampling day 6 p.i.
[14] = start treatment day 4 p.i., blood sampling day 7 p.i.
[15] = start treatment day 4 p.i., blood sampling day 8 p.i.
[16] = start treatment day 4 p.i., blood sampling day 9 p.i.
[17] = start treatment day 5 p.i., blood sampling day 3 p.i.
[18] = start treatment day 5 p.i., blood sampling day 4 p.i.
[19] = start treatment day 5 p.i., blood sampling day 5 p.i.
[20] = start treatment day 5 p.i., blood sampling day 6 p.i.
[21] = start treatment day 5 p.i., blood sampling day 7 p.i.
[22] = start treatment day 5 p.i., blood sampling day 8 p.i.
[23] = start treatment day 5 p.i., blood sampling day 9 p.i.
[24] = start treatment day 0 p.i., blood day 10, individual mice, 30 mg/kg
[25] = start treatment day 0 p.i., blood day 12, individual mice
[26] = start treatment day 0 p.i., blood day 14, individual mice, 30 mg/kg
[27] = start treatment day 4 p.i., blood day 10, individual mice, 30 mg/kg
[28] = start treatment day 4 p.i., blood day 12, individual mice
[29] = start treatment day 4 p.i., blood day 14, individual mice, 30 mg/kg
[30] = start treatment day 5 p.i., blood day 10, individual mice, 30 mg/kg

## COc1cc(N[C@H](C(=O)c2c[nH]c3ccc(OC(F)(F)F)cc23)c2ccc(Cl)cc2OC)cc(S(C)(=O)=O)c1 [JNJ-1802]
[1]
  EC50: 1100 nM
[2]; [3]
  Viral Load Copies/ml: 1.31E+03 Copies/ml and 3.02E+03 Copies/ml
  Viral Load Log10: 3.1316 Log10 and 3.1169 Log10 and 3.4801 Log10
[2]; [4]
  Viral Load Copies/ml: 1.31E+04 Copies/ml and 1.96E+04 Copies/ml and 3.27E+03 Copies/ml and 2.07E+03 Copies/ml
  Viral Load Log10: 4.1169 Log10 and 4.2930 Log10 and 3.5148 Log10 and 3.3153 Log10
[2]; [5]
  Viral Load Copies/ml: 4.36E+03 Copies/ml and 3.27E+03 Copies/ml and 3.93E+03 Copies/ml
  Viral Load Log10: 3.6398 Log10 and 3.5148 Log10 and 3.5940 Log10
[2]; [6]
  Viral Load Copies/ml: 1.31E+03 Copies/ml and 2.07E+03 Copies/ml and 5.61E+03 Copies/ml
  Viral Load Log10: 3.1169 Log10 and 3.3153 Log10 and 3.7489 Log10
[2]; [7]
  Viral Load Copies/ml: 1.57E+03 Copies/ml and 1.64E+03 Copies/ml and 6.54E+03 Copies/ml and 9.82E+03 Copies/ml
  Viral Load Log10: 3.8159 Log10 and 3.9919 Log10
[2]; [8]
  Viral Load Copies/ml: 6.54E+03 Copies/ml and 1.96E+04 Copies/ml and 3.27E+03 Copies/ml
  Viral Load Log10: 3.8159 Log10 and 4.2930 Log10 and 3.5148 Log10
[2]; [9]
  Viral Load Copies/ml: 1.31E+03 Copies/ml and 1.64E+03 Copies/ml
  Viral Load Log10: 3.1169 Log10
[2]; [10]
  Viral Load Copies/ml: 1.96E+04 Copies/ml and 8.52E+04 Copies/ml and 2.38E+05 Copies/ml and 1.40E+06 Copies/ml
  Viral Load Log10: 4.2930 Log10 and 4.9304 Log10 and 5.3771 Log10 and 6.1456 Log10
[2]; [11]
  Viral Load Copies/ml: 5.13E+06 Copies/ml and 8.56E+06 Copies/ml and 1.09E+07 Copies/ml and 3.84E+06 Copies/ml
  Viral Load Log10: 6.7101 Log10 and 6.9324 Log10 and 7.0387 Log10 and 6.5839 Log10
[2]; [12]
  Viral Load Copies/ml: 1.69E+05 Copies/ml and 1.30E+06 Copies/ml and 9.49E+05 Copies/ml and 2.98E+05 Copies/ml
  Viral Load Log10: 5.8093 Log10 and 5.2288 Log10 and 6.1145 Log10 and 5.9771 Log10 and 5.4737 Log10
[2]; [13]
  Viral Load Copies/ml: 1.31E+03 Copies/ml and 2.07E+03 Copies/ml and 3.65E+04 Copies/ml and 6.54E+03 Copies/ml
  Viral Load Log10: 4.0690 Log10 and 3.1169 Log10 and 3.3153 Log10 and 4.5619 Log10 and 3.8159 Log10
[2]; [14]
  Viral Load Copies/ml: 1.31E+03 Copies/ml and 2.07E+03 Copies/ml and 4.29E+06 Copies/ml and 6.54E+03 Copies/ml
  Viral Load Log10: 3.1169 Log10 and 3.3153 Log10 and 6.6320 Log10 and 3.8159 Log10
[2]; [15]
  Viral Load Copies/ml: 1.31E+03 Copies/ml and 1.87E+03 Copies/ml
  Viral Load Log10: 3.1169 Log10 and 3.2718 Log10
[2]; [16]
  Viral Load Copies/ml: 1.31E+03 Copies/ml
  Viral Load Log10: 3.1169 Log10
[2]; [17]
  Viral Load Copies/ml: 1.69E+06 Copies/ml and 8.64E+05 Copies/ml
  Viral Load Log10: 6.8381 Log10 and 6.2281 Log10 and 5.9363 Log10
[2]; [18]
  Viral Load Copies/ml: 1.81E+06 Copies/ml and 3.46E+06 Copies/ml and 7.59E+06 Copies/ml and 4.62E+06 Copies/ml
  Viral Load Log10: 6.2566 Log10 and 6.5396 Log10 and 6.8802 Log10 and 6.6643 Log10
[2]; [19]
  Viral Load Copies/ml: 3.99E+07 Copies/ml and 1.36E+07 Copies/ml and 2.74E+07 Copies/ml and 2.11E+07 Copies/ml and 1.62E+07 Copies/ml
  Viral Load Log10: 7.5974 Log10 and 7.1163 Log10 and 7.4220 Log10 and 7.3194 Log10 and 7.2021 Log10
[2]; [20]
  Viral Load Copies/ml: 1.03E+06 Copies/ml and 1.20E+06 Copies/ml and 1.55E+06 Copies/ml and 4.56E+05 Copies/ml
  Viral Load Log10: 6.0131 Log10 and 6.0795 Log10 and 6.1913 Log10 and 5.6591 Log10
[2]; [21]
  Viral Load Copies/ml: 3.15E+05 Copies/ml
  Viral Load Log10: 5.4984 Log10 and 4.8630 Log10
[2]; [22]
  Viral Load Copies/ml: 1.31E+03 Copies/ml and 1.96E+03 Copies/ml and 5.65E+04 Copies/ml
  Viral Load Log10: 3.1169 Log10 and 3.2930 Log10 and 4.7518 Log10
[2]; [23]
  Viral Load Copies/ml: 1.31E+03 Copies/ml and 1.37E+04 Copies/ml
  Viral Load Log10: 3.1169 Log10 and 4.1354 Log10
[2]; 60 mg/kg/day b.i.d., start day 4
  time until viral loads below LLOQ: ≤ 48 h
[2]; [24]
  Viral (load), log10 of the column before (head empty): 3.1169 and 3.2930
  Viral (load; head cut off): 1.31E+03 and 1.96E+03
[2]; [25]
  Viral (load), log10 of the column before (head empty): 3.1169
  Viral (load; head cut off): 1.31E+03
[2]; [26]
  Viral (load), log10 of the column before (head empty): 3.1169 and 3.6909
  Viral (load; head cut off): 1.31E+03 and 1.57E+03 and 4.91E+03
[2]; [27]
  Viral (load), log10 of the column before (head empty): 3.1468 and 3.2930 and 3.1169
  Viral (load; head cut off): 1.40E+03 and 1.96E+03 and 1.64E+03 and 1.31E+03
[2]; [28]
  Viral (load), log10 of the column before (head empty): 3.1169
  Viral (load; head cut off): 1.31E+03
[2]; [29]
  Viral (load), log10 of the column before (head empty): 3.1169
  Viral (load; head cut off): 1.31E+03 and 1.57E+03
[2]; [30]
  Viral (load), log10 of the column before (head empty): 4.0084 and 3.1169
  Viral (load; head cut off): 1.02E+04 and 1.31E+03
